We go through 24 compounds from patent US8748608B2, “4-phenylpiperazine derivatives with functionalized linkers as dopamine D3 receptor selective ligands and methods of use” (The United States of America as Represented by the …, priority 2007, dated 2014).

Data set [1] deals with human dopamine D2-long (D2) receptor (Homo sapiens (Human), UniProt P14416). The experiment in a line: Human D2-like receptor competition binding in HEK cells, D2. Conditions: hD2L. The source says:
(§1) Human dopamine D2-long (D2) and D3 (D3) receptors were expressed in HEK cells. In brief, stably transfected HEK cells expressing the human D2-long and the D3 dopamine receptor were developed using the pIRES bicistronic expression vector (CLONTECH; Palo Alto, Calif.). […] For comparison, human dopamine D4 (D4) receptors were obtained from HEK 293 cells stably transfected with a PCR product of a human cDNA coding for the D4.4 form of the human D4 dopamine receptor.
(§2) The procedures to determine the binding affinities at the human dopamine D2-like receptors, the binding affinities at the serotonin 5HT1A, 5HT2A and 5HT2c receptors and functional mitogenesis assay are known in the art. […] Both of these references are incorporated by reference.

The target in data set [2] is human dopamine D3 receptor (Homo sapiens (Human), UniProt P35462). The experiment in a line: Human D2-like receptor competition binding in HEK cells, D3. Conditions: for Ki: HEK cells, hD3, read-out: D3 Ki; for D2/D3: ratio of Ki at D2 over Ki at D3.
Source text: as §1, §2

Data set [3] addresses human D4.4 dopamine receptor (Homo sapiens (Human), UniProt P21917). Put plainly: Human D2-like receptor competition binding in HEK cells, D4. Conditions: for Ki: HEK 293 cells, hD4.4; for D4/D3 Ki ratio: head printed D4/D2, values correspond to D4 Ki over D3 Ki.
Source text: as §1, §2

Structures can show the parent of a compound that is named as a salt.

Chain of human dopamine D2-long (D2) receptor (P14416 whole entry): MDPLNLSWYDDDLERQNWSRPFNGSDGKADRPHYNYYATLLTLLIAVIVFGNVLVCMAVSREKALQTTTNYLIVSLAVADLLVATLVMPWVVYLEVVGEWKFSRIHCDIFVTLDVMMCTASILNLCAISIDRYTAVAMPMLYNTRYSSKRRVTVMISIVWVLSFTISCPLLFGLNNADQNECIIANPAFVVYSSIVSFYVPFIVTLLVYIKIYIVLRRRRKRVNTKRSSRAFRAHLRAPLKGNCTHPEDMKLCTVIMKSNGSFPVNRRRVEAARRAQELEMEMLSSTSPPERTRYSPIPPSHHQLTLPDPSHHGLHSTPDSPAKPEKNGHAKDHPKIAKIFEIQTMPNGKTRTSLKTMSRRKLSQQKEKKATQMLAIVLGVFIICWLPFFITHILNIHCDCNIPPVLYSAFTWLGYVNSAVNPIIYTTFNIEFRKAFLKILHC
Chain of human D4.4 dopamine receptor (P21917 whole entry): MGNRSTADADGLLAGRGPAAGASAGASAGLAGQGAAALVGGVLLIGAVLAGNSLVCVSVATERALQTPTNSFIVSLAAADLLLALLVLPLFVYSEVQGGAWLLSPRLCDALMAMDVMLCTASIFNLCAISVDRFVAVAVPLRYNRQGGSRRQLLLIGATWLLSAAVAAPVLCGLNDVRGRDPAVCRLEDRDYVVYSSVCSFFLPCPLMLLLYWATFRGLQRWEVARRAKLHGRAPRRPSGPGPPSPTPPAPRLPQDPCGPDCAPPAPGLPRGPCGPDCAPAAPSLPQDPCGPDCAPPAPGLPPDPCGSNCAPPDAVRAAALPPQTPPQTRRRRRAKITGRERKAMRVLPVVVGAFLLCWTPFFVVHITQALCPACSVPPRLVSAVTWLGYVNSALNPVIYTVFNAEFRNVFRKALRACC
Chain of human dopamine D3 receptor (P35462 whole entry): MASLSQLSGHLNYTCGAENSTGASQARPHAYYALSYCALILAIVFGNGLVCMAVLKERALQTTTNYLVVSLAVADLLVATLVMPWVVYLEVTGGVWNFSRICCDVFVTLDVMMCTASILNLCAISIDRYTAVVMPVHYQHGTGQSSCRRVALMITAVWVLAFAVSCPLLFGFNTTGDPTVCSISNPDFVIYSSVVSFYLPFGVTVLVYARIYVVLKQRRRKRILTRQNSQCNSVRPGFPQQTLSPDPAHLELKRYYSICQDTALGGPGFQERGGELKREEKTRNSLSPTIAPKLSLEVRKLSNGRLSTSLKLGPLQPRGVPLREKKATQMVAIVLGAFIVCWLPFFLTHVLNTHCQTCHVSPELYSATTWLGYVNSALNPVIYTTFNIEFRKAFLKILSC

Broadly, the melting point is the temperature, or range, at which the solid turns liquid. `COc1ccccc1N1CCN(CCCCNC(=O)c2ccc3c(c2)Cc2ccccc2-3)CC1` (as salt: hydrochloride) [Compound 7, N-(4-(4-(2-Methoxyphenyl)piperazin-1-yl)butyl)-9H-fluorene-2-carboxamide] came in with a melting point of 208 to 210 °C.

`COc1ccccc1N1CCN(C/C=C/CNC(=O)c2ccc(-c3ccccn3)cc2)CC1` (as salt: hydrochloride) [Compound 14, N-(4-(4-(2-Methoxy-phenyl)-piperazin-1-yl)-trans-but-2-enyl)-4-pyridin-2-yl-benzamide] registered a melting point of 168 to 170 °C.

Compound `COc1ccccc1N1CCN(C/C=C/CNC(=O)c2ccc3c(c2)Cc2ccccc2-3)CC1` (as salt: hydrochloride) [Compound 15, N-(4-(4-(2-methoxyphenyl)piperazin-1-yl)-trans-but-2-enyl)-9H-fluorene-2-carboxamide] returned a melting point of 224 to 226 °C.

Compound `O=C(NC/C=C/CN1CCN(c2cccc(Cl)c2Cl)CC1)c1ccc(-c2cccc(=O)[nH]2)cc1` (as salt: oxalate) [Compound 9, N-(4-(4-(2,3-Dichloro-phenyl)-piperazin-1-yl)-trans-but-2-enyl)-4-(6-oxo-1,6-dihydro-pyridin-2-yl)-benzamide] gave a melting point of 153 to 154 °C.

`Cc1cccc(-c2ccc(C(=O)NC/C=C/CN3CCN(c4cccc(Cl)c4Cl)CC3)cc2)n1` (as salt: oxalate) [Compound 10, N-(4-(4-(2,3-Dichloro-phenyl)-piperazin-1-yl)-trans-but-2-enyl)-4-(6-methyl-pyridin-2-yl)-benzamide] had a melting point of 125 to 126 °C.

In turn, `O=C(NC/C=C/CN1CCN(c2cccc(Cl)c2Cl)CC1)c1ccc(-c2cccc[n+]2[O-])cc1` (as salt: oxalate) [Compound 12, N-(4-(4-(2,3-Dichloro-phenyl)-piperazin-1-yl)-trans-but-2-enyl)-4-(pyridin-N-oxide-2-yl)-benzamide] came in with a melting point of 153 to 154 °C.

Turning to `O=C(NCCC(O)CN1CCN(c2cccc(Cl)c2Cl)CC1)c1ccc2c(c1)Cc1ccccc1-2` (centres unmarked) (as salt: oxalate) [Compound 17], the melting point was 188 to 190 °C.

The Ki is a measure of affinity in units of concentration, obtained from inhibition or displacement. Consider `O=C(NC/C=C/C[N+]1([O-])CCN(c2cccc(Cl)c2Cl)CC1)c1ccc(-c2ccccn2)cc1` [Compound 13, 4-(2,3-Dichlorophenyl)-1-(4-(4-(pyridin-2-yl)benzamido)-trans-but-2-enyl)-piperazine 1-oxide], for which affinity in data set [1] was put at a Ki of 1.16 µM. Also, in data set [2], the inhibitory constant (Ki) turned out to be 0.0492 µM and the D2/D3 worked out at 24.

Take `COc1ccccc1N1CCN(CC(O)CCNC(=O)c2ccc3c(c2)Cc2ccccc2-3)CC1` (centres unmarked) [Compound 19, N-(3-Hydroxy-4-(4-(2-methoxyphenyl)piperazin-1-yl)-butyl)-9H-fluorene-2-carboxamide]: affinity in data set [1] was put at a Ki of 0.249 µM. Moreover, in data set [2], the inhibition constant Ki amounted to 0.0018 µM and the D2/D3 came to 138. For the same compound, in data set [3], the inhibitory constant (Ki) stood at 1.23 µM and the “D4/D3 Ki ratio” value is recorded as 683.

In turn, `O=C(NCC(O)CCN1CCN(c2cccc(Cl)c2Cl)CC1)c1ccc2c(c1)Cc1ccccc1-2` (centres unmarked) [Compound 22, N-(4-(4-(2,3-Dichlorophenyl)piperazin-1-yl)-2-hydroxybutyl)-9H-fluorene-2-carboxamide] displayed an inhibition constant Ki in data set [1] of 0.084 µM. In data set [2], the inhibitory constant (Ki) came to 0.0025 µM and the D2/D3 amounted to 34.

Regarding `COc1ccccc1N1CCN(CCC(O)CNC(=O)c2ccc3c(c2)Cc2ccccc2-3)CC1` (centres unmarked) [Compound 23, N-(4-(4-(2-Methoxyphenyl)piperazin-1-yl)-2-hydroxybutyl)-9H-fluorene-2-carboxamide], affinity in data set [1] was put at a Ki of 0.0684 µM. In data set [2], the inhibition constant Ki came out at 0.0013 µM and the D2/D3 was 53.

For `COc1ccccc1N1CCN(CC(O)CCNC(=O)c2cc3ccccc3[nH]2)CC1` (centres unmarked) [Compound 35], the values for the inhibition constant Ki in data set [1], in data set [2] and in data set [3] were 0.249 µM, 0.00137 µM and 1.92 µM, respectively. Also, the D2/D3 in data set [2] is 181. The “D4/D3 Ki ratio” value in data set [3] stood at 1401.

Compound `O=C(NCC(O)CCN1CCN(c2cccc(Cl)c2Cl)CC1)c1cc2ccccc2[nH]1` (centres unmarked) [Compound 36] had a Ki in data set [1] of 0.0284 µM. Also, in data set [2], the Ki was determined as 0.00026 µM and the D2/D3 was found to be 109.

`COc1ccccc1N1CCN(CCC(O)CNC(=O)c2cc3ccccc3[nH]2)CC1` (centres unmarked) [Compound 37] gave a Ki in data set [1] of 0.0525 µM. Moreover, in data set [2], the inhibitory constant (Ki) worked out at 0.0005 µM and the D2/D3 was determined as 105.

Compound `CCCOc1ccccc1N1CCN(CC(O)CCNC(=O)c2cc3ccccc3[nH]2)CC1` (centres unmarked) [Compound 38] yielded a Ki in data set [1] of 0.0471 µM. For the same compound, in data set [2], the Ki was 0.0621 µM and the D2/D3 worked out at 1.

In turn, `COc1ccccc1N1CCN(CC(O)CCNC(=O)c2cc3ccccc3s2)CC1` (centres unmarked) [Compound 39] came in with an inhibition constant Ki in data set [1] of 0.337 µM. For the same compound, in data set [2], the inhibition constant (Ki) is 0.0046 µM and the D2/D3 is listed as 73.

Regarding `O=C(NCCC(O)CN1CCN(c2cccc(Cl)c2Cl)CC1)c1cc2ccccc2o1` (centres unmarked) [Compound 42], the Ki in data set [1] worked out at 0.185 µM; in data set [2] it was 0.00098 µM. For the same compound, the D2/D3 in data set [2] worked out at 188.

For `COc1ccccc1N1CCN(CC(O)CCNC(=O)c2cc3ccccc3o2)CC1` (centres unmarked) [Compound 43], the inhibition constant Ki was determined as 0.233 µM in data set [1] and 0.0054 µM in data set [2]. Besides, in data set [2], the D2/D3 came out at 43.

For `COc1ccccc1N1CCN(CC(O)CCNC(=O)c2cc3cc(I)ccc3o2)CC1` (centres unmarked) [Compound 44], the Ki in data set [1] is 0.158 µM. Also, in data set [2], the Ki is 0.0022 µM and the D2/D3 amounted to 71.

`O=C(NCCC(O)CN1CCN(c2cccc(Cl)c2Cl)CC1)c1cc2cc(I)ccc2o1` (centres unmarked) [Compound 45] came in with an inhibition constant (Ki) in data set [1] of 0.697 µM. Further, in data set [2], the inhibitory constant (Ki) was found to be 0.0035 µM and the D2/D3 is given as 200.

As to `O=C(NCCC(O)CN1CCN(c2cccc(Cl)c2Cl)CC1)c1cc2cc(F)ccc2o1` (centres unmarked) [Compound 46], the inhibition constant Ki in data set [1] was determined as 0.245 µM; in data set [2] it was 0.0016 µM. Also, the D2/D3 in data set [2] was found to be 149.

On to `COc1ccccc1N1CCN(CC(O)CCNC(=O)c2cc3cc(F)ccc3o2)CC1` (centres unmarked) [Compound 47], for which, in data set [1], the affinity, expressed as Ki, was 0.18 µM. In addition, in data set [2], the inhibition constant (Ki) came to 0.00065 µM and the D2/D3 came out at 276.

Regarding `COc1ccc2oc(C(=O)NCCC(O)CN3CCN(c4cccc(Cl)c4Cl)CC3)cc2c1` (centres unmarked) [Compound 48], in data set [1], affinity was put at a Ki of 0.244 µM. In data set [2], the Ki turned out to be 0.0013 µM and the D2/D3 amounted to 185.

`COc1ccc2oc(C(=O)NCCC(O)CN3CCN(c4ccccc4OC)CC3)cc2c1` (centres unmarked) [Compound 49] showed an inhibitory constant (Ki) in data set [1] of 0.174 µM. In data set [2], the inhibition constant Ki was 0.001 µM and the D2/D3 is recorded as 172.
